In US20220372067A1, “3.ALPHA.-HYDROXY-17.BETA.-AMIDE NEUROACTIVE STEROIDS AND COMPOSITIONS THEREOF” (SAGE THERAPEUTICS, INC., priority 2018, published 2022) one finds IC50 data, which are given here for 32 molecules.

pIC50: −log10 of the molar value.

Broadly, the pIC50 is −log10 of the IC50, conventionally taken in molar units.

This test concerns the target GABAA receptor (TBPS binding site), rat brain cortical membranes. Nature of the test: [35S]-TBPS binding assay, rat brain cortical membranes in the presence of 5 mM GABA. As to conditions: inhibition of 3 nM [35S]-TBPS binding. As for the experimental part:
[^35S]-t-Butylbicyclophosphorothionate (TBPS) binding assays using rat brain cortical membranes in the presence of 5 mM GABA has been described (Gee et al, J. Pharmacol. Exp. Ther. 1987, 241, 346-353; Hawkinson et al, Mol. Pharmacol. 1994, 46, 977-985; Lewin, A. H et al., Mol. Pharmacol. 1989, 35, 189-194).
Briefly, cortices are rapidly removed following decapitation of carbon dioxide-anesthetized Sprague-Dawley rats (200-250 g). The cortices are homogenized in 10 volumes of ice-cold 0.32 M sucrose using a glass/teflon homogenizer and centrifuged at 1500×g for 10 min at 4° C. The resultant supernatants are centrifuged at 10,000×g for 20 min at 4° C. to obtain the P2 pellets. The P2 pellets are resuspended in 200 mM NaCl/50 mM Na—K phosphate pH 7.4 buffer and centrifuged at 10,000×g for 10 min at 4° C. This washing procedure is repeated twice and the pellets are resuspended in 10 volumes of buffer. Aliquots ([…]) of the membrane suspensions are incubated with 3 nM [^35S]-TBPS and […] aliquots of test drug dissolved in dimethyl sulfoxide (DMSO) (final 0.5%) in the presence of 5 mM GABA. The incubation is brought to a final volume of 1.0 mL with buffer. Nonspecific binding is determined in the presence of […] and ranged from 15 to 25%. Following a 90 min incubation at room temp, the assays are terminated by filtration through glass fiber filters (Schleicher and Schuell No. 32) using a cell harvester (Brandel) and rinsed three times with ice-cold buffer. Filter bound radioactivity is measured by liquid scintillation spectrometry. Non-linear curve fitting of the overall data for each drug averaged for each concentration is done using Prism (GraphPad). […] The concentration of test compound producing 50% inhibition (IC50) of specific binding and the maximal extent of inhibition (Imax) are determined for the individual experiments with the same model used for the overall data and then the means±SEM.s of the individual experiments are calculated.
Various compounds are or can be screened to determine their potential as modulators of [^35S]-TBPS binding in vitro. These assays are or can be performed in accordance with the above
`CCOC[C@@]1(O)CC[C@H]2[C@H](CC[C@@H]3[C@@H]2CC[C@]2(C)[C@@H](C(=O)Nc4ccncc4)CC[C@@H]32)C1` [Example 1, (3R,5R,8R,9R,10S,13S,14S,17S)-3-(ethoxymethyl)-3-hydroxy-13-methyl-N-(pyridin-4-yl)hexadecahydro-1H-cyclopenta[a]phenanthrene-17-carboxamide]: the pIC50 is more than 7.00. Consider `CCOC[C@@]1(O)CC[C@H]2[C@H](CC[C@@H]3[C@@H]2CC[C@]2(C)[C@@H](C(=O)Nc4cncc(C#N)n4)CC[C@@H]32)C1` [Example 58], for which the negative-log IC50 (pIC50) is more than 7.00. Turning to `CCOC[C@@]1(O)CC[C@H]2[C@H](CC[C@@H]3[C@@H]2CC[C@]2(C)[C@@H](C(=O)Nc4ncc(C#N)cc4C)CC[C@@H]32)C1` [Example 23], the pIC50 was 6.00 to 7.00. Next, `CCOC[C@@]1(O)CC[C@H]2[C@H](CC[C@@H]3[C@@H]2CC[C@]2(C)[C@@H](C(=O)Nc4ncccc4C(F)(F)F)CC[C@@H]32)C1` [Example 3, (3R,5R,8R,9R,10S,13S,14S,17S)-3-(ethoxymethyl)-3-hydroxy-13-methyl-N-(3-(trifluoromethyl)pyridin-2-yl)hexadecahydro-1H-cyclopenta[a]phenanthrene-17-carboxamide]: 6.00 to 7.00; `CCOC[C@@]1(O)CC[C@H]2[C@H](CC[C@@H]3[C@@H]2CC[C@]2(C)[C@@H](C(=O)Nc4nc(C#N)ccc4C)CC[C@@H]32)C1` [Example 61]: 6.00 to 7.00. The result for `CCOC[C@@]1(O)CC[C@H]2[C@H](CC[C@@H]3[C@@H]2CC[C@]2(C)[C@@H](C(=O)Nc4ncc(C)cc4C)CC[C@@H]32)C1` [Example 62] reads 6.00 to 7.00; that for `CCOC[C@@]1(O)CC[C@H]2[C@H](CC[C@@H]3[C@@H]2CC[C@]2(C)[C@@H](C(=O)Nc4cncc(C)n4)CC[C@@H]32)C1` [Example 24], more than 7.00; that for `COC[C@@]1(O)CC[C@H]2[C@H](CC[C@@H]3[C@@H]2CC[C@]2(C)[C@@H](C(=O)Nc4ccc(C(F)(F)F)nc4C)CC[C@@H]32)C1` [Example 46], more than 7.00. Next, `COC[C@@]1(O)CC[C@H]2[C@H](CC[C@@H]3[C@@H]2CC[C@]2(C)[C@@H](C(=O)Nc4cccc(C)n4)CC[C@@H]32)C1` [Example 38]: more than 7.00.

Consider `CCOC[C@@]1(O)CC[C@H]2[C@H](CC[C@@H]3[C@@H]2CC[C@]2(C)[C@@H](C(=O)Nc4ncc(C#N)cc4Cl)CC[C@@H]32)C1` [Example 26], for which the pIC50 was more than 7.00.

As for `CCOC[C@@]1(O)CC[C@H]2[C@H](CC[C@@H]3[C@@H]2CC[C@]2(C)[C@@H](C(=O)Nc4c(C#N)cnn4C)CC[C@@H]32)C1` [Example 57], the negative-log IC50 (pIC50) was less than 6.00. The result for `CCOC[C@@]1(O)CC[C@H]2[C@H](CC[C@@H]3[C@@H]2CC[C@]2(C)[C@@H](C(=O)Nc4ccc(C#N)nc4C)CC[C@@H]32)C1` [Example 27] reads more than 7.00; that for `CCOC[C@@]1(O)CC[C@@]2(CC)[C@H](CC[C@H]3[C@@H]4CC[C@H](C(=O)Nc5ccc(C#N)cn5)[C@@]4(C)CC[C@@H]32)C1` [Example 33], more than 7.00. Next, `COC[C@@]1(O)CC[C@H]2[C@H](CC[C@@H]3[C@@H]2CC[C@]2(C)[C@@H](C(=O)Nc4ccc(F)cn4)CC[C@@H]32)C1` [Example 10, (3R,5R,8R,9R,10S,13S,14S,17S)-N-(5-fluoropyridin-2-yl)-3-hydroxy-3-(methoxymethyl)-13-methylhexadecahydro-1H-cyclopenta[a]phenanthrene-17-carboxamide]: more than 7.00; `CCOC[C@@]1(O)CC[C@@]2(CC)[C@H](CC[C@H]3[C@@H]4CC[C@H](C(=O)Nc5cc(C#N)n(C)n5)[C@@]4(C)CC[C@@H]32)C1` [Example 36]: more than 7.00; `COC[C@@]1(O)CC[C@@]2(C)[C@@H](CC[C@@H]3[C@@H]2CC[C@]2(C)[C@@H](C(=O)Nc4cccnc4C)CC[C@@H]32)C1` [Example 32]: more than 7.00. On to `C[C@]12CC[C@H]3[C@@H](CC[C@@H]4C[C@H](O)CC[C@@H]43)[C@@H]1CC[C@@H]2C(=O)Nc1cnc(C#N)cn1` [Example 14, (3R,5R,8R,9R,10S,13S,14S,17S)-N-(5-cyanopyrazin-2-yl)-3-hydroxy-13-methylhexadecahydro-1H-cyclopenta[a]phenanthrene-17-carboxamide], for which the pIC50 was more than 7.00.

For `CCOC[C@@]1(O)CC[C@H]2[C@H](CC[C@@H]3[C@@H]2CC[C@]2(C)[C@@H](C(=O)Nc4ccnn4C4CCCC4)CC[C@@H]32)C1` [Example 55], the pIC50 was more than 7.00.

Take `COC[C@@]1(O)CC[C@H]2[C@H](CC[C@@H]3[C@@H]2CC[C@]2(C)[C@@H](C(=O)Nc4nc(C)ccc4Cl)CC[C@@H]32)C1` [Example 44]: the negative logarithm of the IC50 (pIC50) is 6.00 to 7.00.

For the molecule `COC[C@@]1(O)CC[C@H]2[C@H](CC[C@@H]3[C@@H]2CC[C@]2(C)[C@@H](C(=O)Nc4ccc(C#N)nc4Cl)CC[C@@H]32)C1` [Example 42], the pIC50 is more than 7.00. As for `COC[C@@]1(O)CC[C@H]2[C@H](CC[C@@H]3[C@@H]2CC[C@]2(C)[C@@H](C(=O)Nc4cccc(N5CCCC5=O)n4)CC[C@@H]32)C1` [Example 50], the pIC50 is more than 7.00.

Take `CCOC[C@@]1(O)CC[C@H]2[C@H](CC[C@@H]3[C@@H]2CC[C@]2(C)[C@@H](C(=O)Nc4cccnc4F)CC[C@@H]32)C1` [Example 66, (3R,5R,8R,9R,10S,13S,14S,17S)-3-(ethoxymethyl)-N-(2-fluoropyridin-3-yl)-3-hydroxy-13-methylhexadecahydro-1H-cyclopenta[a]phenanthrene-17-carboxamide]: the negative logarithm of the IC50 (pIC50) was more than 7.00. Next, `CCOC[C@@]1(O)CC[C@H]2[C@H](CC[C@@H]3[C@@H]2CC[C@]2(C)[C@@H](C(=O)Nc4ccc(C#N)cn4)CC[C@@H]32)C1` [Example 22]: more than 7.00; `COC[C@@]1(O)CC[C@H]2[C@H](CC[C@@H]3[C@@H]2CC[C@]2(C)[C@@H](C(=O)Nc4ccc(-n5nccc5C)nc4C)CC[C@@H]32)C1` [Example 47]: more than 7.00. `COC[C@@]1(O)CC[C@H]2[C@H](CC[C@@H]3[C@@H]2CC[C@]2(C)[C@@H](C(=O)Nc4ccc(-c5ncc(F)cn5)nc4C)CC[C@@H]32)C1` [Example 48]: the pIC50 was more than 7.00. The result for `CCOC[C@@]1(O)CC[C@@]2(CC)[C@H](CC[C@H]3[C@@H]4CC[C@H](C(=O)Nc5cc(C#N)nn5C)[C@@]4(C)CC[C@@H]32)C1` [Example 35] reads more than 7.00. In the case of `COC[C@@]1(O)CC[C@H]2[C@H](CC[C@@H]3[C@@H]2CC[C@]2(C)[C@@H](C(=O)Nc4ccc(C)nc4Cl)CC[C@@H]32)C1` [Example 43], the pIC50 is more than 7.00. As for `COC[C@@]1(O)CC[C@H]2[C@H](CC[C@@H]3[C@@H]2CC[C@]2(C)[C@@H](C(=O)Nc4ccc(C)nc4)CC[C@@H]32)C1` [Example 40], the pIC50 is more than 7.00. For `CC[C@@]1(O)CC[C@H]2[C@H](CC[C@@H]3[C@@H]2CC[C@]2(C)[C@@H](C(=O)Nc4nc(C)ccc4Cl)CC[C@@H]32)C1` [Example 16, (3R,5R,8R,9R,10S,13S,14S,17S)-N-(3-chloro-6-methylpyridin-2-yl)-3-ethyl-3-hydroxy-13-methylhexadecahydro-1H-cyclopenta[a]phenanthrene-17-carboxamide], the pIC50 was 6.00 to 7.00. With `CCOC[C@@]1(O)CC[C@H]2[C@H](CC[C@@H]3[C@@H]2CC[C@]2(C)[C@@H](C(=O)Nc4ccccn4)CC[C@@H]32)C1` [Example 20], the pIC50 is more than 7.00.

`CCOC[C@@]1(O)CC[C@H]2[C@H](CC[C@@H]3[C@@H]2CC[C@]2(C)[C@@H](C(=O)Nc4c5c(nn4C)CCCC5)CC[C@@H]32)C1` [Example 54]: the pIC50 was 6.00 to 7.00.

For `CCOC[C@@]1(O)CC[C@H]2[C@H](CC[C@@H]3[C@@H]2CC[C@]2(C)[C@@H](C(=O)Nc4ncccc4C)CC[C@@H]32)C1` [Example 2, (3R,5R,8R,9R,10S,13S,14S,17S)-3-(ethoxymethyl)-3-hydroxy-13-methyl-N-(3-methylpyridin-2-yl)hexadecahydro-1H-cyclopenta[a]phenanthrene-17-carboxamide], the pIC50 is less than 6.00.
